# In ChEMBL document CHEMBL5661955, “ASAP - In vitro cytotoxicity” (2024):
# Where “and” joins values, the source holds several entries; their conditions need not be identical. Equal entries are not always repeated.
# Tests used:
# [1] = Functional CPE-based assay to measure dose dependent changes in cell viability from drug treatment in Vero E6 miRFP670 cells (cotreated with P-gp inhibitor, CP100356). Cells are treated with antiviral candidates that have been serially diluted. Cytotoxicity is reported via analysis of MTS assays in uninfected cells. The assay has been performed by KU Leuven.; type: toxicity, Vero C1008; conditions: chlorocebus sabaeus, p-gp concentration 500 nM
# [2] = Functional metabolic assay to measure dose dependent changes in cell viability from drug treatment in Vero E6/TMPRSS2 cells (cotreated with P-gp inhibitor, Elacridar). […] Cytotoxicity is reported via measuring absorbance and analysis of MTT/MTS assays in uninfected cells. The assay has been performed by Icahn School of Medicine at Mount Sinai.; type: toxicity, cell-based, VeroE6/TMPRSS2; conditions: chlorocebus sabaeus, p-gp concentration 2 uM; for CC50: Vero E6/TMPRSS2 cells, with Elacridar (P-gp inhibitor, concentration not stated); for CC10: veroe6/tmprss2
# [3] = Functional assay to measure dose dependent changes in cell viability from drug treatment in Vero E6 miRFP670 cells (cotreated with P-gp inhibitor, CP100356) that are infected with Dengue virus type 2 New Guinea C. […] Cytotoxicity is reported via via analysis of DAPI count using high-content imager. The assay has been performed by KU Leuven.; type: toxicity, cell-based, Vero C1008; conditions: chlorocebus sabaeus, p-gp concentration 500 nM
# [4] = Vero E6 miRFP670 cells, with CP100356 (P-gp inhibitor, concentration not stated)
# [5] = with CP100356 (P-gp inhibitor, concentration not stated)
Compound,"CC50 [1, 4]",CC50 [2],CC10 [2],"CC50 [3, 5]",CC50 ([1]; vero c1008),CC50 ([3]; vero c1008)
COc1cc(Br)cc(C(=O)Nc2ccc3c(c2)CNC3)c1,47.5 µM,> 50 µM,4.817 µM,27.5 µM,–,–
COCCNC(=O)[C@H](Nc1ccc2c(c1)CNC2)c1cc(Cl)cc(C2CC2)c1,> 50 µM,> 50 µM,> 50 µM,> 50 µM,–,–
O=C(NCC(F)F)[C@H](Nc1ccc2c(c1)CNC2)c1cc(Cl)cc(C2CC2)c1,> 50 µM,> 50 µM,–,–,46.9 µM and 47.6 µM,> 50 µM and 21.1 µM and 27.1 µM
O=C(O)Cc1c[nH]c2cc(-c3cc(Cl)cc(NC(=O)OCc4ccccc4)c3)ccc12,32.1 µM,–,–,18 µM,–,–
Cc1cc(C(=O)Nc2ccc3c(c2)CNC3)c2cn[nH]c2c1,> 50 µM,–,24.901 µM and 9.914 µM,24 µM,–,–
Cn1cc2cc(Cl)cc(C(=O)Nc3ccc4c(c3)CNC4)c2n1,2.75 µM,> 50 µM,> 50 µM,3.58 µM,–,–
O=C(Nc1cc(Cl)cc(-c2cnn(Cc3ccc(C(=O)O)cc3)c2)c1)OCc1ccccc1,35.5 µM,–,–,24 µM,–,–
Nc1cc(Cl)cc(C(=O)Nc2ccc3c(c2)CNC3)c1N,> 50 µM,> 50 µM,< 0.023 µM,> 50 µM,–,–
N#CCCNC(=O)[C@H](Nc1ccc2c(c1)CNC2)c1cc(Cl)cc(C2CC2)c1,> 50 µM,> 50 µM,> 50 µM,24.2 µM,–,–
O=C(Nc1ccc2c(c1)CNC2)c1cc(Br)cc2[nH]c([C@H]3CCOC3)nc12,5.11 µM,26.1 µM,0.852 µM,3.68 µM,–,–
FC(F)(F)Oc1cc(Cl)cc2c(Cc3ccc(-c4nnn[nH]4)cc3)c[nH]c12,30.6 µM,–,–,11.1 µM,–,–
CNC(=O)[C@H](Nc1ccc2c(c1)CNC2)c1cc(Cl)cc(C2CC2)c1,> 50 µM,> 50 µM,> 50 µM,> 50 µM,–,–
N#C[C@H](Nc1ccc2c(c1)CNC2)c1cc(Cl)cc(C2CC2)c1,46.5 µM,> 50 µM,> 50 µM,> 50 µM,–,–
O=C(Nc1ccc2c(c1)CNC2)c1cc(F)cc2[nH]nnc12,> 50 µM,> 50 µM,> 50 µM,> 50 µM,–,–
Clc1cc(CNc2ccc3c(c2)CNC3)c2cn[nH]c2c1,29.8 µM,–,–,21.4 µM,–,–
O=C(NC1CCOCC1)[C@H](Nc1ccc2c(c1)CNC2)c1cc(Cl)cc(C2CC2)c1,49.9 µM,> 50 µM,> 50 µM,> 50 µM,–,–
Cn1cc(CNC(=O)[C@H](Nc2ccc3c(c2)CNC3)c2cc(Cl)cc(C3CC3)c2)cn1,> 50 µM,> 50 µM,–,> 50 µM,–,–
O=C(Nc1ccc2c(c1)CNC2)c1cc(C(F)(F)F)cc2[nH]ccc12,> 50 µM,> 50 µM,> 50 µM,> 50 µM,–,–
Cn1cc(CCc2nc3c(C(=O)Nc4ccc5c(c4)CNC5)cc(Cl)cc3[nH]2)cn1,> 50 µM,> 50 µM,17.311 µM,> 50 µM,–,–
O=C(Nc1ccc2c(c1)CNC2)c1cc(F)cc2[nH]ncc12,> 50 µM,> 50 µM,> 50 µM,> 50 µM,–,–
COC(=O)c1cc(Br)cc2c(Cc3ccc(-c4nnn[nH]4)cc3)c[nH]c12,36.9 µM,–,–,9.83 µM,–,–
O=C(Nc1ccc2c(c1)CCNCC2)c1cc(Cl)cc2[nH]ncc12,> 50 µM,44.2 µM,7.014 µM,> 50 µM,–,–
O=C(Nc1ccc2c(c1)CNC2)c1cc(Br)cc2[nH]ncc12,> 50 µM,> 50 µM,> 50 µM,> 50 µM,–,–
O=C(NC[C@H]1CCCO1)[C@H](Nc1ccc2c(c1)CNC2)c1cc(Cl)cc(C2CC2)c1,39.2 µM,> 50 µM,> 50 µM,> 50 µM,–,–

Compound,"CC50 [1, 4]",CC50 [2],CC10 [2],"CC50 [3, 5]",CC50 ([1]; vero c1008),CC50 ([3]; vero c1008)
COC(=O)CNC(=O)[C@H](Nc1ccc2c(c1)CNC2)c1cc(Cl)cc(C2CC2)c1,> 50 µM,> 50 µM,–,2.05 µM,–,–
Cc1ccc(NC(=O)c2cc(Cl)cc3[nH]ncc23)cc1CN,> 50 µM,> 50 µM,0.133 µM,> 50 µM,–,–
Cc1c(C(=O)Nc2cc([C@H]3CCOC3)ccn2)cc(C2CC2)n1C,–,> 50 µM,> 50 µM,> 50 µM,9.14 µM and > 50 µM,29.2 µM
O=C(NCc1ccc(F)cc1)[C@H](Nc1ccc2c(c1)CNC2)c1cc(Cl)cc2[nH]ncc12,> 50 µM,–,> 50 µM,> 50 µM,–,–
N[C@H]1Cc2ccc(NC(=O)c3cc(Cl)cc4[nH]ncc34)cc2C1,> 50 µM,> 50 µM,> 50 µM,> 50 µM,–,–
O=C(Nc1ccc2c(c1)CNC2)c1cc(Cl)cc2ccncc12,> 50 µM,> 50 µM,> 50 µM,> 50 µM,–,–
N#Cc1cc(C(=O)Nc2ccc3c(c2)CNC3)cc(C(F)(F)F)c1,> 50 µM,> 50 µM,> 50 µM,0.739 µM,–,–
O=C1Cc2c(cc(Br)cc2C(=O)Nc2ccc3c(c2)CNC3)N1,> 50 µM,> 50 µM,–,27.7 µM,–,–
CN(c1ccc2c(c1)CNC2)[C@H](C(=O)NCC(F)F)c1cc(Cl)cc(C2CC2)c1,9.32 µM,–,–,14.3 µM,–,–
O=C1Cc2c(cccc2C(=O)Nc2ccc3c(c2)CCNCC3)N1,> 50 µM,–,–,> 50 µM,–,–
Cc1c(C(=O)Nc2cc(-c3cccnc3)ccn2)cc(C2CC2)n1C,> 50 µM,> 50 µM,13.062 µM,18.9 µM,40.1 µM,11.9 µM
O=C(Nc1ccc2c(c1)CNC2)c1cc(Cl)cc2[nH]c(-c3c[nH]c(=O)c(Br)c3)nc12,> 50 µM,–,–,14.3 µM,–,–
O=C(Nc1cnc2c(c1)CNC2)c1cc(F)cc2[nH]ncc12,> 50 µM,–,–,> 50 µM,–,–
O=C(NCC(F)F)[C@H](Nc1cc2c(cc1Br)CNC2)c1cc(Cl)cc(C2CC2)c1,5.82 µM,–,–,6.39 µM,–,–
O=C(Nc1ccc2c(c1)CN[C@H]2CC1CC1)c1cc(F)cc2[nH]ncc12,11.8 µM,–,–,18.7 µM,–,–
O=C1Nc2ccc(C(=O)Nc3ccc4c(c3)CNC4)cc2C1=O,> 50 µM,–,–,25.7 µM,–,–
CC(C)(C)OC(=O)N1Cc2ccc(N[C@H](C(=O)O)c3cc(Cl)cc4[nH]ncc34)cc2C1,> 50 µM,–,–,28.9 µM,–,–
NCc1ccc(-c2csc3cc(C(=O)Nc4ccc5c(c4)CNC5)ccc23)cc1,31.9 µM,–,–,4.14 µM,–,–
O=C(Nc1cc(Cl)cc(C(=O)Nc2ccc(-n3nn[nH]c3=O)cc2)c1)OCc1ccccc1,> 50 µM,–,–,31.8 µM,–,–
NCc1csc2cc(C(=O)Nc3ccc4c(c3)CNC4)ccc12,> 50 µM,–,–,5.74 µM,–,–
O=C(Nc1ccc2c(c1)CNC2)c1cccc2c(C3CNC3)n[nH]c12,> 50 µM,–,–,> 50 µM,–,–
C[C@H]1C(=O)Nc2ccc(C(=O)Nc3ccc4c(c3)CNC4)cc21,> 50 µM,–,–,> 50 µM,–,–
N[C@H]1Cc2ccc(NC(=O)c3cccc4c3CC(=O)N4)cc2C1,> 50 µM,–,–,> 50 µM,–,–
